Patent publication EP4563586A1, “NEW INHIBITORS OF LRRK2/PP1 INTERACTION” (Université Paris Cité, priority 2023, dated 2025)
One block for each molecule: values may come before it. Non-standard residues stand in square brackets, D forms with d. Residues, ends and D or L forms follow the SMILES beside them. No end group written: not given here. Ahx = NCCCCCC(=O)O

What was measured:
[1] = Peptide stability in human serum (MALDI-TOF); format: in vitro ADME; settings: for remaining at 24 h, 100 µM: after 24h of incubation at 37°C in human serum, 100 µM (Figure 6), read-out: peptide still present
Protocol: The peptides were incubated at 37°C in 250 µL of human serum (Gibco) for different periods of time. Samples were collected and peptide degradation stopped by freezing at -20°C. The peptide was extracted from samples using the Proteo Miner Protein Enrichment System (Bio-Rad). The percentage of intact peptide was estimated by MS using MALDI-TOFF using the protocol previously described (Bruker Autoflex II) according to the manufacturer's instructions. Measurements were performed in triplicate. MS data were analysed using the software Cliprot tools, Flex analysis, Bruker.

[2] = molecular target: T1, Leucine-rich repeat kinase 2 (LRRK2), human (human, UniProt Q5S007 1-2527); experiment: PP1 dodecapeptide array on cellulose membrane
T1 construct: Protein as present in MDA-MB231 lysates; also called dardarin
T1 sequence (Q5S007 whole entry R50H/L212S): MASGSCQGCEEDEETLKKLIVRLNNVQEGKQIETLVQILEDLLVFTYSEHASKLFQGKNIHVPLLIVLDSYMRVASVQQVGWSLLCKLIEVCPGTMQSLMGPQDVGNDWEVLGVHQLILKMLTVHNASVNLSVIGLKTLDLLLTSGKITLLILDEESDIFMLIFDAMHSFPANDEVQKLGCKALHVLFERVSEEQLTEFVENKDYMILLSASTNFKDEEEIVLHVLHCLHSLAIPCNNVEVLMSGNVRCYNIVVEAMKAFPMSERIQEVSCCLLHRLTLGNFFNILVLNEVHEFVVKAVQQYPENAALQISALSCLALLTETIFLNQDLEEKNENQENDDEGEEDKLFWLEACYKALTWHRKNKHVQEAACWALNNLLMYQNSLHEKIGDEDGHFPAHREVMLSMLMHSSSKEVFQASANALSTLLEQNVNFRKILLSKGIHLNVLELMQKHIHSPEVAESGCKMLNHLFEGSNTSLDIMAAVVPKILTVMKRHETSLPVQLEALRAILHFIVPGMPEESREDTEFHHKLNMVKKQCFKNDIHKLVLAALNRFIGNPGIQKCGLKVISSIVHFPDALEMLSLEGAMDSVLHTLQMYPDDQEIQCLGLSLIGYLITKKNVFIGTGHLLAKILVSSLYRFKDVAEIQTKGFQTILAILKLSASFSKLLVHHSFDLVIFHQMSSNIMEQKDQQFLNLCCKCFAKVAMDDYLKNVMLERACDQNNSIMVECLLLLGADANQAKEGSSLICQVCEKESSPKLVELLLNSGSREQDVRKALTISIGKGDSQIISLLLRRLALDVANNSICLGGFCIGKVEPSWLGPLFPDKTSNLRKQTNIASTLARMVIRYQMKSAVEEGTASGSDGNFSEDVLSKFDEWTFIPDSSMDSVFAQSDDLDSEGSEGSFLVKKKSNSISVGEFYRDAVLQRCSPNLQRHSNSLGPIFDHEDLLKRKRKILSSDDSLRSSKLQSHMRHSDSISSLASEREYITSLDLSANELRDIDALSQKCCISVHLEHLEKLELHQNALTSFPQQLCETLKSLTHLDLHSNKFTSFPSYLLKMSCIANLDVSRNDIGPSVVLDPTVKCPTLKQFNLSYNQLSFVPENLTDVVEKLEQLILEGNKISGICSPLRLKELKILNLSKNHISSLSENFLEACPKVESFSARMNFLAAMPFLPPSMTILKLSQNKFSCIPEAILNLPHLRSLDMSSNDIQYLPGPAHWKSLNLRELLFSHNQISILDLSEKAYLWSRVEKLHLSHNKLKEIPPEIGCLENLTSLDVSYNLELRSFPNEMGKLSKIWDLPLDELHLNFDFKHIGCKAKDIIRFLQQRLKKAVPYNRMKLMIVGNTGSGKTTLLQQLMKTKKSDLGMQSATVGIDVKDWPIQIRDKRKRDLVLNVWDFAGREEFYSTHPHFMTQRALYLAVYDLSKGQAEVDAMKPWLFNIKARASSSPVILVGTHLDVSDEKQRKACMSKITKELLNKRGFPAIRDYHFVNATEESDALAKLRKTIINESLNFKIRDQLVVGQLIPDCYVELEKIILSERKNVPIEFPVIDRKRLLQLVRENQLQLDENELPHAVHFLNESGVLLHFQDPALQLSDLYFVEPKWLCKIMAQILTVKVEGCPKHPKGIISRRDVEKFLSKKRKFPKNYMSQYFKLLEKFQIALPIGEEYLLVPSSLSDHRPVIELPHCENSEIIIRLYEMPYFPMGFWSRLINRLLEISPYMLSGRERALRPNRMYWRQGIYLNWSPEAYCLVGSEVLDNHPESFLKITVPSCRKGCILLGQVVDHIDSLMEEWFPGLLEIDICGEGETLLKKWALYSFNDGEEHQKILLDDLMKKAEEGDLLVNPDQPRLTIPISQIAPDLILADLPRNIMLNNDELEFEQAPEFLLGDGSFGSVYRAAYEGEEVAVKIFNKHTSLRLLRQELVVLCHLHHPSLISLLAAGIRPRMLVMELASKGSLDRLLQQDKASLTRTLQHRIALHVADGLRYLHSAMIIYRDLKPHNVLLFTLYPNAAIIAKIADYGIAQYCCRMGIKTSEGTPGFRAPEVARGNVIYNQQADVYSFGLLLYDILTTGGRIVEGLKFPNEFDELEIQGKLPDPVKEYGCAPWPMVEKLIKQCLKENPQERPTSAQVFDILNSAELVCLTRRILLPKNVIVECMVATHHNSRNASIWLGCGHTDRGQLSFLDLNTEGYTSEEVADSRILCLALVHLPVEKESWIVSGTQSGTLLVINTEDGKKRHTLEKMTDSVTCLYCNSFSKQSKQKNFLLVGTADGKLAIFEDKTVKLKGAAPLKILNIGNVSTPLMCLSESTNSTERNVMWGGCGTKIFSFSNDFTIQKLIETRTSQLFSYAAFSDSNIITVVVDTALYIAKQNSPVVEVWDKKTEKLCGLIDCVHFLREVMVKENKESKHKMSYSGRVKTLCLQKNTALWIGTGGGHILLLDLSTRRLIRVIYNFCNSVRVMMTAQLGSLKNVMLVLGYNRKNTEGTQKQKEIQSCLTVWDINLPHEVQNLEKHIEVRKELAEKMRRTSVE

Molecule: CC[C@H](C)[C@H](NC(=O)[C@H](CCC(=O)O)NC(=O)[C@H](CC(C)C)NC(=O)[C@H](CC(C)C)NC(=O)[C@H](CCCNC(=N)N)NC(=O)[C@H](CC(N)=O)NC(=O)[C@@H](NC(=O)[C@H](CC(C)C)NC(=O)[C@H](CCCNC(=N)N)NC(=O)[C@H](CO)NC(=O)[C@H](Cc1c[nH]c2ccccc12)NC(=O)[C@H](Cc1ccccc1)NC(=O)CN)[C@@H](C)CC)C(=O)NCCCCCC(=O)N[C@@H](CO)C(=O)N[C@@H](CCCNC(=N)N)C(=O)N[C@@H](CCCNC(=N)N)C(=O)N[C@H](C(=O)N[C@H](C(=O)N[C@@H](CO)C(=O)N[C@@H](CCCNC(=N)N)C(=O)N[C@@H](C)C(=O)N[C@@H](CCCCN)C(=O)N[C@@H](CC(C)C)C(=O)N[C@@H](C)C(=O)N[C@@H](C)C(=O)N[C@@H](C)C(=O)N[C@@H](CC(C)C)C(=O)O)[C@@H](C)CC)C(C)C [Peptide 1, GFWSRLINRLLEI- AHx -SRRVISRAKLAAAL] (H-GFWSRLINRLLEI[Ahx]SRRVISRAKLAAAL-OH)
remaining at 24 h, 100 µM [1]: > 90%
stability in serum (resistance to proteases) ([1]; human serum, 37°C, result in words): particularly high

Molecule: GFWSRLINRLLEIGGSSRRVISRAKLAAAL [Peptide 2, GFWSRLINRLLEI- GGS -SRRVISRAKLAAAL]
remaining at 24 h, 100 µM [1]: > 90%

B1: Peptide 20 (AEVVAKFLHKHDLDLICRAH), fragment of PP1 (peptide)
peptide: AEVVAKFLHKHDLDLICRAH
notes: Synthetic peptide, isolated fragment of PP1
binding result [2]: binds

The remaining lines, values ahead:

binding result [2]: binds
B2: Peptide 19 (VQGSRPGKNVQLTENE), fragment of PP1 (peptide)
peptide: VQGSRPGKNVQLTENE
notes: as for B1

binding result [2]: binds
B3: Peptide 21 (NPGGRPITPPRNSAKAKK), fragment of PP1 (peptide)
peptide: NPGGRPITPPRNSAKAKK
notes: as for B1
